Measured values published in a polymer gas permeability compilation.

Row | Compound | CH4 permeability [Barrer] | CO2 permeability [Barrer] | N2 permeability [Barrer] | O2 permeability [Barrer] | H2 permeability [Barrer]
1 | *NC(=O)c1ccc(C(c2ccc(C(=O)Nc3c(C)cc4c(c3C)C3c5ccccc5C4c4cc(C)c(*)c(C)c43)cc2)(C(F)(F)F)C(F)(F)F)cc1 (repeat unit) | – | 121 | 5.8 | 27.5 | 212
2 | *c1cc(-c2nc3cc(-c4ccc5[nH]c(*)nc5c4)ccc3[nH]2)cc(C(C)(C)C)c1 (repeat unit) | 0.05 | 1.91 | 0.06 | 0.42 | 10.7
3 | *O[Si](C)(C)c1ccc([Si](*)(C)C)cc1 (repeat unit) | 12 | 65 | – | 11 | –
4 | *CC(*)(C)c1ccccc1 (repeat unit) | 0.14 | 3 | 0.15 | 0.82 | –
5 | *c1ccc2c3c(ccc2c1)OC1CC3c2c(ccc3cc(N4C(=O)c5ccc(C(c6ccc7c(c6)C(=O)N(*)C7=O)(C(F)(F)F)C(F)(F)F)cc5C4=O)ccc23)O1 (repeat unit) | 0.6 | 26.3 | 1.1 | 5.85 | 60.2
6 | *Nc1ccc(Oc2c(F)c(F)c(Oc3ccc(NC(=O)CN4C(=O)c5ccc(C(*)=O)cc5C4=O)cc3)c(F)c2F)cc1 (repeat unit) | 0.013 | 1.27 | 0.071 | 0.284 | –
7 | *c1c(C)cc(C)c(N2C(=O)c3ccc(-c4ccc5c(c4)C(=O)N(*)C5=O)cc3C2=O)c1C (repeat unit) | 8 | 182 | 7.5 | 32 | 210
8 | *Oc1cc2c(cc1O*)C1(CC2(C)C)CC(C)(C)c2cc3c(cc21)Oc1c(CN)c(*)c(*)c(CN)c1O3 (repeat unit) | 257 | 1590 | 176 | 752 | 2280
9 | *Oc1ccc(C2(c3ccc(Oc4ccc(S(=O)(=O)c5ccc(*)cc5)cc4)cc3)C3CC4CC(C3)CC2C4)cc1 (repeat unit) | 0.327 | 7.2 | 0.332 | 1.86 | 17.3
10 | *Oc1ccc(S(=O)(=O)c2ccc(Oc3cccc4c(*)cccc34)cc2)cc1 (repeat unit) | 0.0364 | 1.6 | 0.0568 | 0.42 | 8.1
11 | *Oc1ccc(Oc2ccc(C(=O)c3ccc(*)cc3)cc2)c(-c2cccc(C(F)(F)F)c2)c1 (repeat unit) | 0.041 | 1.5 | 0.051 | 0.38 | 5.1
12 | *C(=C(*)c1ccc2c(c1)Cc1ccccc1-2)c1ccc([Si](C)(C)C)cc1 (repeat unit) | 2000 | 6450 | 950 | 1650 | 3100
13 | *c1ccc2c(-c3c(OC(C)=O)ccc4cc(N5C(=O)c6ccc(C(c7ccc8c(c7)C(=O)N(*)C8=O)(C(F)(F)F)C(F)(F)F)cc6C5=O)ccc34)c(OC(C)=O)ccc2c1 (repeat unit) | 0.12 | 5.05 | 0.23 | 1.19 | 6.56
14 | *Oc1ccc(Oc2cccc(*)c2C#N)c(-c2cc(C(F)(F)F)cc(C(F)(F)F)c2)c1 (repeat unit) | 0.83 | 19 | 1.12 | 6.6 | 35
15 | *O[Si](C)(C)c1cccc([Si](*)(C)C)c1 (repeat unit) | 106 | 518 | – | 74 | –
16 | *CC(*)c1ccc(O)cc1 (repeat unit) | – | – | 0.015 | 0.12 | –
17 | *Oc1ccc(S(=O)(=O)c2ccc(Oc3ccc(C(C)(C)c4ccc(*)c(C)c4)cc3C)cc2)cc1 (repeat unit) | 0.0706 | 2.1 | 0.0914 | 0.64 | –

The remaining lines, values ahead:

Row | CH4 permeability [Barrer] | CO2 permeability [Barrer] | N2 permeability [Barrer] | O2 permeability [Barrer] | H2 permeability [Barrer] | Compound
18 | 0.611 | 22.1 | 0.979 | 5.22 | – | *c1ccc(C(c2ccc(N3C(=O)c4ccc(-c5ccc6c(c5)C(=O)N(*)C6=O)cc4C3=O)cc2)(C(F)(F)F)C(F)(F)F)cc1 (repeat unit)
19 | 0.0055 | 0.335 | 0.0107 | 0.0957 | – | *c1ccc(Cc2ccc(N3C(=O)c4ccc(-c5ccc6c(c5)C(=O)N(*)C6=O)cc4C3=O)cc2Cl)c(Cl)c1 (repeat unit)
20 | 0.06 | 3.5 | 0.17 | 0.94 | 9.6 | *Oc1ccc(Oc2cccc(*)c2C#N)c(-c2cc(C)cc(C)c2)c1 (repeat unit)
21 | 0.11 | 1.95 | 0.11 | 0.7 | – | *Oc1ccc(S(=O)(=O)c2ccc(Oc3ccc(C(C)(C)c4ccc(*)cc4)cc3CN)cc2)cc1 (repeat unit)
22 | – | – | 1.62 | 8.2 | 68.6 | *c1c(C)cc(C)c(N2C(=O)c3ccc(Sc4ccc5c(c4)C(=O)N(*)C5=O)cc3C2=O)c1C (repeat unit)
23 | 8.5 | 67 | 3.7 | 16 | 73 | */C=C/C1CC(*)CC1[Si](C)(C)C[Si](C)(C)C (repeat unit)
24 | 46 | 530 | 23 | 82 | 340 | *C(=C(*)c1ccc(C(C)(C)C)cc1)c1ccc(O)cc1 (repeat unit)
25 | 2.43 | 61.8 | 5.2 | 20 | 151 | *c1ccc(Oc2ccc(C3(c4ccc(Oc5ccc(N6C(=O)c7ccc(C(c8ccc9c(c8)C(=O)N(*)C9=O)(C(F)(F)F)C(F)(F)F)cc7C6=O)cc5C(F)(F)F)cc4)c4ccccc4-c4ccccc43)cc2)c(C(F)(F)F)c1 (repeat unit)
